According to US20240207258A1, “HETEROCYCLIC PDK1 INHIBITORS FOR USE TO TREAT CANCER” (Viracta Therapeutics, Inc., priority 2015, published 2024):
pEC50: −log10 of the molar value.

How the values were obtained:
P-PDK1 = assay: Pathway modulation in MV4-11 tumor xenografts, pPDK1; assay type: in vivo, mice; conditions: MV4-11 tumors, IP 50 mg/kg
Description: MV4-11 cells propagated in vitro were implanted subcutaneous into the right flank of 9-week old female NCr nu/nu mice. On the day of implant, MV4-11 cells were harvested during log phase growth and resuspended in phosphate buffered saline (PBS) containing 50% Matrigel™ (BD Biosciences) at a concentration of 1×10^8 cells/mL. […] Two weeks after implantation, animals were assigned to individual groups of 3 animals with and average tumor volume of approximately 200 mm^3. […] Eight hours post-dose, full blood volume was collected by cardiac puncture under isoflurane anesthesia and tumors were excised and snapfrozen in liquid nitrogen and stored at −80° C. until further analysis. Tumors were pulverized in liquid nitrogen using a Biopulverizer and split into two sample tubes: one for Western blot analysis and one for analysis of compound levels by LC-MS/MS. […] For MS analysis, tumor samples were homogenized with a Virsonic 100 ultrasonic homogenizer. Each sample was first weighed, and then an appropriate volume of 20:80 methanol:water was added to make a 9 mL/gram sample. Samples were then homogenized on ice, and stored frozen until analysis. Standards were prepared in BALB/c mouse plasma or blank homogenized tumor tissue. Standards and samples were analyzed on a PE Sciex API4000 instrument and compound concentration was quantified and back-calculated to ng compound per g tumor tissue and converted to M concentration assuming 1 g tumor tissue equals 1 mL volume.

U-2932 = assay: MTS cell proliferation assay, U-2932; assay type: cell-based; conditions: Homo sapiens, U2932; U-2932, 72 hr
Method: (§1) Cell proliferation was measured using the CellTiter 96 Aqueous Non-Radioactive Cell Proliferation Assay (Promega). The CellTiter 96® AQueous Assay is composed of solutions of a tetrazolium compound [3-(4,5-dimethylthiazol-2-yl)-5-(3-carboxymethoxyphenyl)-2-(4-sulfophenyl)-2H-tetrazolium, inner salt; MTS] and an electron coupling reagent (phenazine methosulfate) PMS. MTS is bioreduced by cells into a formazan product that is soluble in tissue culture medium. The absorbance of the formazan product at 490 nm can be measured directly from assay plates without additional processing. The quantity of formazan product as measured by the amount of 490 nm absorbance is directly proportional to the number of living cells in culture. Cells were seeded into 96-well or 384-well clear plates in a volume of 200 μL (96-well) or 50 μL (384-well) at optimized densities ranging from 1,000 to 40,000 cells per well for 96-well plates or 1,200 to 25,000 cells per well for 384-well plates depending on cell-line. After 4-6 hr recovery, serially diluted compounds in DMSO were added to the cells using (0.1% v/v final DMSO concentration). Cells were then grown at 37° C. in a humidified incubator with 5% CO2 for 72 hr. A 20:1 [3-(4,5-dimethylthiazol-2-yl)-5-(3-carboxymethoxyphenyl)-2-(4-sulfophenyl)-2H-tetrazolium](MTS):phenazine methosulfate (PMS) solution in DPBS was made immediately before use, added to each well, and cells were incubated for 1.5 hr at 37° C. The absorbance at 490 nm was then measured using a platereader. Absorbance values were normalized as percent of control (cells incubated in the presence of 0.1% v/v DMSO). Sigmoidal dose-response curves were plotted using log(inhibitor) vs. response—Variable slope (four parameters) model with a top value constrained to 100% (GraphPad Prism version 6.00 for Windows, GraphPad Software, La Jolla California USA). […] Curves for compounds that reached a plateau were matched exactly to the measurement points. […] To determine potential of compounds of the invention to affect viability of hematological cancers, cell lines representing various tumor types were selected and tested. Human cell lines tested were: MOLM-13 (acute myeloid leukemia (AML)), MV4-11 (AML), U-2932 (ABC-diffuse large B cell lymphoma), U-937 (histiocytic lymphoma), U-266 (multiple myeloma), RPMI-8226 (multiple myeloma), CMK (megakaryoblastic cell line), SU-DHL-4 (GCB-diffuse large B cell lymphoma), KG1 (AML), Mec-1 (chronic B-cell leukemia), MOLM-16 (AML), Jeko (B-cell lymphoma), WSU-DLCL2 (B-cell lymphoma), JJN3 (plasma cell leukemia), SU-DHL-6 (GCB-diffuse large B cell lymphoma), and Z-138 (mantle cell lymphoma). In addition, two murine cell lines were tested: A20 […].

C1498 = assay: MTS cell proliferation assay, C1498; assay type: cell-based, murine; conditions: Mus musculus, C1498, 72 h, read-out: MTS proliferation assay (μM)
Method: (§2) Cell proliferation was measured using the CellTiter 96 Aqueous Non-Radioactive Cell Proliferation Assay (Promega). […] MTS is bioreduced by cells into a formazan product that is soluble in tissue culture medium. The absorbance of the formazan product at 490 nm can be measured directly from assay plates without additional processing. The quantity of formazan product as measured by the amount of 490 nm absorbance is directly proportional to the number of living cells in culture. Cells were seeded into 96-well or 384-well clear plates in a volume of 200 μL (96-well) or 50 μL (384-well) at optimized densities ranging from 1,000 to 40,000 cells per well for 96-well plates or 1,200 to 25,000 cells per well for 384-well plates depending on cell-line. After 4-6 hr recovery, serially diluted compounds in DMSO were added to the cells using (0.1% v/v final DMSO concentration). Cells were then grown at 37° C. in a humidified incubator with 5% CO2 for 72 hr. A 20:1 [3-(4,5-dimethylthiazol-2-yl)-5-(3-carboxymethoxyphenyl)-2-(4-sulfophenyl)-2H-tetrazolium](MTS):phenazine methosulfate (PMS) solution in DPBS was made immediately before use, added to each well, and cells were incubated for 1.5 hr at 37° C. The absorbance at 490 nm was then measured using a platereader. Absorbance values were normalized as percent of control (cells incubated in the presence of 0.1% v/v DMSO). Sigmoidal dose-response curves were plotted using log(inhibitor) vs. response—Variable slope (four parameters) model with a top value constrained to 100% (GraphPad Prism version 6.00 for Windows, GraphPad Software, La Jolla California USA). […] To determine potential of compounds of the invention to affect viability of hematological cancers, cell lines representing various tumor types were selected and tested. […] In addition, two murine cell lines were tested: A20 […].

Molm-13 = assay: MTS cell proliferation assay, Molm-13; assay type: cell-based; conditions: Homo sapiens; Molm-13, 72 hr
Method: as §1

A20 = assay: MTS cell proliferation assay, A20; assay type: cell-based, murine; conditions: Mus musculus; A20, 72 hr
Method: as §1

Jeko = assay: MTS cell proliferation assay, Jeko; assay type: cell-based; conditions: Homo sapiens, 72 hr
Method: as §1

MV4-11 = assay: MTS cell proliferation assay, MV4-11; assay type: cell-based, human; conditions: Homo sapiens, MV4-11, 72 h, read-out: MTS proliferation assay (μM)
Method: as §2

RPMI-8226 = assay: MTS cell proliferation assay, RPMI-8226; assay type: cell-based; conditions: Homo sapiens; RPMI-8226, 72 hr
Method: as §1

P-AKT = assay: Western blot, AKT phosphorylation in A20 cells; assay type: cell-based, murine
Method: For phosphoprotein analyses, cells were seeded into 10 cm petri dishes (10×10^6 cells/dish) in media supplemented with 10% FBS and penicillin/streptomycin. After cells recovered for 1 hr at 37° C., compounds were added in DMSO (0.1% final) and incubated for 4 or 24 hr at 37° C. Cells were then harvested by centrifugation and washed with cold PBS. Cell pellets were resuspended in cell extraction buffer (Invitrogen) supplemented with 2×Halt™ protease and phosphatase inhibitor cocktail (Thermo Scientific), 2 mM sodium orthovanadate, 10 mM EDTA and 4 mM PMSF. Samples were lysed by sonication and incubated on ice for 30 min. Cell debris was removed by centrifugation and protein concentrations were determined using the BCA Protein Assay Kit (Pierce). The clarified lysate was diluted in LDS sample buffer with reducing agent (Life Technologies). […] Gels were run at 110 V and proteins were transferred to a PVDF membrane. Membranes were blocked in TBS blocking buffer (Li-Cor Biosciences) for 1 hr. Primary antibodies (Cell Signaling, Sant Cruz Biotechnology) were added (1:1,000 dilution) in blocking buffer with 0.1% Tween-20 and 1:20,000 dilution of β-actin antibody and incubated for 14 hr at 4° C. Blots were washed in TBS-T. Label-conjugated goat anti-rabbit secondary antibody (IRdye® 800CW; Li-Cor Biosciences) was added in blocking buffer with 0.1% Tween-20 and 0.02% SDS and incubated for 1 hr. After washing in TBS-T followed by TBS, membranes were scanned on an Odyssey imaging system (Li-Cor Biosciences). Bands were quantitated using ImageJ.

MV4-11 cells = assay: Induction of apoptosis (Annexin V / propidium iodide flow cytometry); assay type: cell-based, human
Method: Cells were seeded in a six-well tissue culture plate in 3 mL complete growth medium (3×10^5 cells/well) and allowed to equilibrate for 1 hr at 37° C. in a humidified incubator with 5% CO2. DMSO (control), test compound, or doxorubicin was added to the wells (0.1% final DMSO concentration). Cells were returned to the incubator for 24 hrs. On the day of analysis 1×10^5 cells were labeled according to manufacturer's instructions and analyzed by flow cytometry (BD FACSCaalibur™, GH) to determine the percent of apoptotic cells (annexin V positive, AV+) and/or apoptotic dead cells (AV+ and propidium iodide positive (PI+)).

[1] = target: T1, Full-length phosphorylated PDK1 (Homo sapiens, UniProt O15530); assay: FRET-based PIF-tide binding assay; conditions: 10 nM compound where stated, FIG. 13D
T1 sequence (O15530 1-556): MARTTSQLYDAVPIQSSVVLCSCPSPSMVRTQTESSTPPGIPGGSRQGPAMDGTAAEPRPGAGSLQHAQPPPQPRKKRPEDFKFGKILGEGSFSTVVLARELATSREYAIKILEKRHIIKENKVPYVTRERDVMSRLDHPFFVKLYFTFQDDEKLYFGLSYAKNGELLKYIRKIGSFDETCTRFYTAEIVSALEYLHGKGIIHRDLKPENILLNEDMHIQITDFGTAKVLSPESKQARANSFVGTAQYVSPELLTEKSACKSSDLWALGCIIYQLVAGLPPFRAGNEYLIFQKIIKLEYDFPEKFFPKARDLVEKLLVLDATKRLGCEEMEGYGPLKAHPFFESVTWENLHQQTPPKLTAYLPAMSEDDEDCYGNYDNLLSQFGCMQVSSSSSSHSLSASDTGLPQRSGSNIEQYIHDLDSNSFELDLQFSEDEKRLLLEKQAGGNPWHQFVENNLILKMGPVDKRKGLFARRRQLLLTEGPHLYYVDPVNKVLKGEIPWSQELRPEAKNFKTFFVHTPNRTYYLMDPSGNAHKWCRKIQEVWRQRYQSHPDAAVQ

## CNc1nc(-c2ccc3c(N)n[nH]c3c2)cc(N2C[C@@H](C(=O)NC3CCCCC3)CC[C@H]2C)n1 [GSK2334470, reference compound]
P-PDK1
  pathway modulation and tumor exposure: comparable to that of 50 mg/kg GDC0941 and 1 mg/kg Compound 1 or Compound 2
U-2932
  pEC50: 6.01
C1498
  EC50: 0.358 µM
Molm-13
  pEC50: 6.44
A20
  pEC50: 6.31
Jeko
  pEC50: 5.65
MV4-11
  EC50: 0.105 µM
RPMI-8226
  pEC50: 5.54
P-AKT
  P-AKT levels: barely affected
MV4-11 cells; 100 nM
  apoptosis at 100 nM: no evidence of apoptosis
MV4-11 cells; 24 hrs
  concentration inducing apoptosis: > 300 nM

## CN[C@@H]1C[C@H]2O[C@@](C)([C@@H]1OC)n1c3ccccc3c3c4c(c5c6ccccc6n2c5c31)C(=O)NC4 [staurosporine, reference compound]
[1]
  FRET between PDK1 and PIF-tide: does not inhibit FRET
